Peptide text beside a SMILES is read from it.
Test system: Botrytis cinerea (B05.10)
Assay: Resazurin antifungal assay of 180 alpha-factor peptide variants towards Botrytis (Example 2)
Type: cell-based
Parameters: key to active against Botrytis at 15 μM / active against Botrytis at 10 μM: Peptides that showed greater than 90% inhibition were considered active against Botrytis
Conditions: for Inhibition at 10 μM / Inhibition at 20 μM / Inhibition at 50 μM / Inhibition at 100 μM / Inhibition at 15 μM: % inhibition of fungal growth, Botrytis conidia, resazurin; for Inhibition at 10 μM: peptide 10 μM; for Inhibition at 20 μM: peptide 20 μM; for Inhibition at 50 μM: peptide 50 μM; for Inhibition at 100 μM: peptide 100 μM
Method: The antifungal activity of 180 alpha-factor peptide variants towards Botrytis was tested. Experimental design:
Peptides corresponding to SEQ ID NO: 1-180 were chemically synthesized using the solid-phase synthesis method and resuspended in water to a stock solution of 1 mM. The stock solution was aliquoted in cryovials and stored at −80° C.
The Botrytis cinerea culture (B05.10) isolate was acquired from the Centraalbureau voor Schimmelcultures, the Netherlands. The Botrytis fungus was propagated on 0.5% V8 agar plates (200 ml V8 Juice, 3 g CaCO3, 15 g agar, 800-ml millipore water) at 20° C., in a 12 h photoperiod for 21 days.
Fungal conidia were harvested by scraping a Botrytis plate flooded with 1 ml water with 0.1% Tween 80 solution. Conidia were then collected in a 50 ml falcon tube by passing the solution through a 40 micron filter. The solution was then centrifuged at 6000 rpm and the pellet was resuspended in 1 ml of 20% glycerol. The conidia concentration of the resulting solution was counted using a hemocytometer. The stock was diluted to […] using 20% glycerol and frozen in 100 μl aliquots in −80° C. until further use.
Peptides were tested for activity against Botrytis, using the resazurin assay. For this, fungal stock conidia was first diluted to 5000 conidia/well. 50 μl of the spore suspension was added to each well of the sterile 96-well clear bottom testing plate and mixed with 50 μl of peptide solutions to a final concentration of 100, 50, 20, 15 and 10 μM. The plate was incubated for 24 h at 20° C. After 24 h, 10 μl of resazurin dye was added to the microtiter plate and incubated again for […]. Fluorescence was measured at 570/620 nm after 4 h of incubation with resazurin.
Growth inhibition was calculated by subtracting the fluorescence values of conidia only wells from sample wells and depicted as % inhibition of fungal growth. Four technical replicates were used for all treatments.

| SMILES | Inhibition at 10 μM [%] | Inhibition at 20 μM [%] | Inhibition at 50 μM [%] | Inhibition at 100 μM [%] | Inhibition at 15 μM (peptide 15 μM) [%] | active against Botrytis at 15 μM (peptide 15 μM) |
| --- | --- | --- | --- | --- | --- | --- |
| CC[C@H](C)[C@H](NC(=O)[C@H](CCC(N)=O)NC(=O)[C@@H](NC(=O)[C@H](Cc1c[nH]c2ccccc12)NC(=O)[C@H](Cc1c[nH]cn1)NC(=O)[C@@H]1CCCN1)C(C)C)C(=O)N[C@@H](CCCCN)C(=O)N[C@@H](CC(C)C)C(=O)NCC(=O)N[C@@H](CCC(N)=O)C(=O)N1CCC[C@H]1C(=O)N[C@@H](CCSC)C(=O)N[C@@H](Cc1ccc(O)cc1)C(=O)O [compound 10] (H-PHWVQIKLGQPMY-OH; N-terminus and C-terminus assumed) | <90 | <90 | 100 | 100 |  |  |
| CSCC[C@H](NC(=O)[C@H](CO)NC(=O)[C@H](C)NC(=O)CNC(=O)[C@@H]1CCCN1C(=O)[C@H](CCCCN)NC(=O)[C@H](CC(C)C)NC(=O)[C@H](CCCNC(=N)N)NC(=O)[C@H](CC(C)C)NC(=O)[C@H](Cc1c[nH]c2ccccc12)NC(=O)[C@H](Cc1c[nH]cn1)NC(=O)[C@@H](N)Cc1c[nH]c2ccccc12)C(=O)N[C@@H](Cc1ccc(O)cc1)C(=O)O [compound 76] (H-WHWLRLKPGASMY-OH; N-terminus and C-terminus assumed) | <90 | 97.59 | 100 | 100 | <90 |  |
| CSCC[C@H](NC(=O)[C@@H]1CCCN1C(=O)[C@H](CCC(N)=O)NC(=O)CNC(=O)[C@H](CO)NC(=O)[C@H](Cc1c[nH]c2ccccc12)NC(=O)[C@H](CC(C)C)NC(=O)[C@H](CCC(N)=O)NC(=O)CNC(=O)[C@H](CO)NC(=O)[C@H](Cc1c[nH]cn1)NC(=O)[C@@H]1CCCN1)C(=O)N[C@@H](Cc1ccc(O)cc1)C(=O)O [compound 42] (H-PHSGQLWSGQPMY-OH; N-terminus and C-terminus assumed) |  |  | <90 | <90 |  |  |
| CSCC[C@H](NC(=O)[C@@H]1CCCN1C(=O)[C@H](CCC(N)=O)NC(=O)CNC(=O)[C@@H]1CCCN1C(=O)[C@H](CCCCN)NC(=O)[C@H](CC(C)C)NC(=O)[C@H](CC(N)=O)NC(=O)[C@H](CC(C)C)NC(=O)[C@H](Cc1c[nH]c2ccccc12)NC(=O)[C@H](CCC(=O)O)NC(=O)[C@@H](N)CCCCN)C(=O)N[C@@H](Cc1ccc(O)cc1)C(=O)O [compound 151] (H-KEWLNLKPGQPMY-OH; N-terminus and C-terminus assumed) |  |  | <90 | <90 |  |  |
| CC[C@H](C)[C@H](NC(=O)[C@H](CCCCN)NC(=O)[C@H](Cc1ccccc1)NC(=O)[C@H](CCC(=O)O)NC(=O)[C@H](CC(C)C)NC(=O)[C@H](CO)NC(=O)[C@H](Cc1c[nH]cn1)NC(=O)[C@@H](N)Cc1c[nH]c2ccccc12)C(=O)NCC(=O)N[C@@H](CCC(N)=O)C(=O)NCC(=O)N[C@@H](CCSC)C(=O)N[C@@H](Cc1ccc(O)cc1)C(=O)O [compound 89] (H-WHSLEFKIGQGMY-OH; N-terminus and C-terminus assumed) | <90 | <90 | 99.55 | 100 |  |  |
| CSCC[C@H](NC(=O)[C@H](CCCCN)NC(=O)[C@H](Cc1ccccc1)NC(=O)[C@H](CCC(N)=O)NC(=O)[C@@H](NC(=O)[C@H](CC(C)C)NC(=O)[C@H](Cc1c[nH]cn1)NC(=O)[C@@H](N)CCCCN)C(C)C)C(=O)NCC(=O)N[C@@H](CCC(N)=O)C(=O)N1CCC[C@H]1C(=O)N[C@@H](CCSC)C(=O)N[C@@H](Cc1ccc(O)cc1)C(=O)O [compound 22] (H-KHLVQFKMGQPMY-OH; N-terminus and C-terminus assumed) | <90 | <90 | 100 | 100 |  |  |
| CC[C@H](C)[C@H](NC(=O)[C@H](Cc1ccccc1)NC(=O)[C@H](CS)NC(=O)[C@@H](N)CCCCN)C(=O)N[C@@H](CCC(N)=O)C(=O)N[C@@H](CC(C)C)C(=O)N[C@@H](CCCCN)C(=O)N1CCC[C@H]1C(=O)NCC(=O)N[C@@H](CCC(N)=O)C(=O)N1CCC[C@H]1C(=O)N[C@@H](CCSC)C(=O)N[C@@H](Cc1ccc(O)cc1)C(=O)O [compound 140] (H-KCFIQLKPGQPMY-OH; N-terminus and C-terminus assumed) |  |  | <90 | 90.65 |  |  |
| CSCC[C@H](NC(=O)[C@H](CO)NC(=O)[C@H](CCC(N)=O)NC(=O)CNC(=O)[C@H](CCCNC(=N)N)NC(=O)[C@H](Cc1c[nH]c2ccccc12)NC(=O)[C@H](Cc1ccccc1)NC(=O)[C@H](CCC(N)=O)NC(=O)[C@H](CC(C)C)NC(=O)[C@H](Cc1c[nH]c2ccccc12)NC(=O)[C@H](Cc1c[nH]cn1)NC(=O)[C@@H](N)Cc1c[nH]c2ccccc12)C(=O)N[C@@H](Cc1ccc(O)cc1)C(=O)O [compound 1] (H-WHWLQFWRGQSMY-OH; N-terminus and C-terminus assumed) | <90 | <90 | 100 | 100 |  |  |
| CC[C@H](C)[C@H](NC(=O)[C@@H](NC(=O)[C@H](CC(C)C)NC(=O)[C@H](Cc1c[nH]c2ccccc12)NC(=O)[C@H](Cc1c[nH]cn1)NC(=O)[C@@H]1CCCN1)[C@@H](C)O)C(=O)N[C@@H](CCCCN)C(=O)N1CCC[C@H]1C(=O)NCC(=O)N[C@@H](CCC(N)=O)C(=O)N1CCC[C@H]1C(=O)N[C@@H](CCSC)C(=O)N[C@@H](Cc1ccc(O)cc1)C(=O)O [compound 30] (H-PHWLTIKPGQPMY-OH; N-terminus and C-terminus assumed) |  |  | <90 | <90 |  |  |
| CSCC[C@H](NC(=O)[C@@H]1CCCN1C(=O)[C@H](CCC(N)=O)NC(=O)CNC(=O)[C@@H]1CCCN1C(=O)[C@H](CCCCN)NC(=O)[C@H](Cc1ccccc1)NC(=O)[C@H](CCCNC(=N)N)NC(=O)[C@H](CC(C)C)NC(=O)[C@H](Cc1c[nH]c2ccccc12)NC(=O)[C@H](Cc1c[nH]cn1)NC(=O)[C@@H](N)CCCCN)C(=O)N[C@@H](Cc1ccc(O)cc1)C(=O)O [compound 9] (H-KHWLRFKPGQPMY-OH; N-terminus and C-terminus assumed) | <90 | 100 | 100 | 100 | 100 | active |
| CSCC[C@H](NC(=O)[C@@H]1CCCN1C(=O)[C@H](CO)NC(=O)CNC(=O)[C@@H]1CCCN1C(=O)[C@H](CCCCN)NC(=O)[C@H](Cc1ccccc1)NC(=O)[C@H](C)NC(=O)[C@@H](NC(=O)[C@H](Cc1c[nH]c2ccccc12)NC(=O)[C@H](Cc1c[nH]cn1)NC(=O)[C@@H]1CCCN1)C(C)C)C(=O)N[C@@H](Cc1ccc(O)cc1)C(=O)O [compound 161] (H-PHWVAFKPGSPMY-OH; N-terminus and C-terminus assumed) |  |  | <90 | 90.52 |  |  |
| CC[C@H](C)[C@H](NC(=O)[C@H](Cc1c[nH]c2ccccc12)NC(=O)[C@H](Cc1c[nH]cn1)NC(=O)[C@@H](N)CCCCN)C(=O)N[C@@H](CCCCN)C(=O)N[C@@H](CC(C)C)C(=O)N[C@@H](CCCCN)C(=O)N[C@@H](CC(N)=O)C(=O)NCC(=O)N[C@@H](CCC(N)=O)C(=O)N1CCC[C@H]1C(=O)N[C@@H](CCSC)C(=O)N[C@@H](Cc1ccc(O)cc1)C(=O)O [compound 81] (H-KHWIKLKNGQPMY-OH; N-terminus and C-terminus assumed) | <90 | 99.51 | 100 | 100 | <90 |  |
| CSCC[C@H](NC(=O)[C@@H]1CCCN1C(=O)[C@H](CCSC)NC(=O)CNC(=O)[C@H](CO)NC(=O)[C@H](CCCCN)NC(=O)[C@H](CC(C)C)NC(=O)[C@H](C)NC(=O)CNC(=O)[C@H](Cc1c[nH]c2ccccc12)NC(=O)[C@H](CO)NC(=O)[C@@H](N)Cc1c[nH]c2ccccc12)C(=O)N[C@@H](Cc1ccc(O)cc1)C(=O)O [compound 172] (H-WSWGALKSGMPMY-OH; N-terminus and C-terminus assumed) |  |  | <90 | <90 |  |  |
| CSCC[C@H](NC(=O)[C@@H]1CCCN1C(=O)[C@H](CCC(N)=O)NC(=O)CNC(=O)[C@H](CCCNC(=N)N)NC(=O)[C@H](CCCCN)NC(=O)[C@H](Cc1ccccc1)NC(=O)[C@H](CCC(N)=O)NC(=O)[C@@H](NC(=O)[C@H](Cc1ccccc1)NC(=O)[C@H](CCC(=O)O)NC(=O)[C@@H](N)Cc1c[nH]c2ccccc12)C(C)C)C(=O)N[C@@H](Cc1ccc(O)cc1)C(=O)O [compound 166] (H-WEFVQFKRGQPMY-OH; N-terminus and C-terminus assumed) |  |  | <90 | <90 |  |  |
